According to patent publication US8192962B2, “Processes for detecting toxic substances” (Daikin Industries, Ltd., priority 2001, dated 2012):

Tested on: Energy system protein genes
Test: DNA chip mRNA expression in yeast, energy system protein genes (Table 4)
Assay type: cell-based, Saccharomyces cerevisiae S288C
Outline: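 First, S288C yeast grown in YPD at 25° C. are dosed in log phase with one toxicant (growth-inhibiting, not lethal) for 2 h. Next, total RNA is extracted and poly(A) mRNA isolated and reverse-transcribed with Cy3/Cy5-dUTP. Finally, whole-genome chip fluorescence is read relative to unexposed cells.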

Cl[C@H]1[C@H](Cl)[C@@H](Cl)[C@@H](Cl)[C@H](Cl)[C@H]1Cl [(7), γ-hexachlorocyclohexane]
The level of expressed mRNA in the presence of chemical substance/The level of expressed mRNA in the absence of chemical substance (yeast gene YAL060W): 3.3 | The level of expressed mRNA in the presence of chemical substance/The level of expressed mRNA in the absence of chemical substance (yeast gene YBL058W, cells incubated two hours with the chemical substance): 1.5 | The level of expressed mRNA in the presence of chemical substance/The level of expressed mRNA in the absence of chemical substance (yeast gene YBL099W, cells incubated two hours with the chemical substance): 0.9 | The level of expressed mRNA in the presence of chemical substance/The level of expressed mRNA in the absence of chemical substance (yeast gene YBR001C, cells incubated two hours with the chemical substance): 0.9 | The level of expressed mRNA in the presence of chemical substance/The level of expressed mRNA in the absence of chemical substance (yeast gene YBR185C, cells incubated two hours with the chemical substance): 1.2 | The level of expressed mRNA in the presence of chemical substance/The level of expressed mRNA in the absence of chemical substance (yeast gene YBR221C, cells incubated two hours with the chemical substance): 1.5 | The level of expressed mRNA in the presence of chemical substance/The level of expressed mRNA in the absence of chemical substance (yeast gene YCL040W): 2.9 | The level of expressed mRNA in the presence of chemical substance/The level of expressed mRNA in the absence of chemical substance (yeast gene YCR012W): 1.4 | The level of expressed mRNA in the presence of chemical substance/The level of expressed mRNA in the absence of chemical substance (yeast gene YCR046C, cells incubated two hours with the chemical substance): 1.2 | The level of expressed mRNA in the presence of chemical substance/The level of expressed mRNA in the absence of chemical substance (yeast gene YCR105W, cells incubated two hours with the chemical substance): 1.0 | The level of expressed mRNA in the presence of chemical substance/The level of expressed mRNA in the absence of chemical substance (yeast gene YDL021W): 5.9 | The level of expressed mRNA in the presence of chemical substance/The level of expressed mRNA in the absence of chemical substance (yeast gene YDL067C, cells incubated two hours with the chemical substance): 0.8 | The level of expressed mRNA in the presence of chemical substance/The level of expressed mRNA in the absence of chemical substance (yeast gene YDL078C, cells incubated two hours with the chemical substance): 1.7 | The level of expressed mRNA in the presence of chemical substance/The level of expressed mRNA in the absence of chemical substance (yeast gene YDL107W, cells incubated two hours with the chemical substance): 1.8 | The level of expressed mRNA in the presence of chemical substance/The level of expressed mRNA in the absence of chemical substance (yeast gene YDL174C): 3.6 | The level of expressed mRNA in the presence of chemical substance/The level of expressed mRNA in the absence of chemical substance (yeast gene YDL181W, cells incubated two hours with the chemical substance): 1.1 | The level of expressed mRNA in the presence of chemical substance/The level of expressed mRNA in the absence of chemical substance (yeast gene YDR001C): 1.5 | The level of expressed mRNA in the presence of chemical substance/The level of expressed mRNA in the absence of chemical substance (yeast gene YDR050C, cells incubated two hours with the chemical substance): 1.5 | The level of expressed mRNA in the presence of chemical substance/The level of expressed mRNA in the absence of chemical substance (yeast gene YDR079W, cells incubated two hours with the chemical substance): 1.3 | The level of expressed mRNA in the presence of chemical substance/The level of expressed mRNA in the absence of chemical substance (yeast gene YDR178W, cells incubated two hours with the chemical substance): 0.6 | The level of expressed mRNA in the presence of chemical substance/The level of expressed mRNA in the absence of chemical substance (yeast gene YDR231C): 1.7 | The level of expressed mRNA in the presence of chemical substance/The level of expressed mRNA in the absence of chemical substance (yeast gene YDR298C, cells incubated two hours with the chemical substance): 1.0 | The level of expressed mRNA in the presence of chemical substance/The level of expressed mRNA in the absence of chemical substance (yeast gene YDR377W, cells incubated two hours with the chemical substance): 1.1 | The level of expressed mRNA in the presence of chemical substance/The level of expressed mRNA in the absence of chemical substance (yeast gene YDR529C, cells incubated two hours with the chemical substance): 0.5 | The level of expressed mRNA in the presence of chemical substance/The level of expressed mRNA in the absence of chemical substance (yeast gene YEL024W, cells incubated two hours with the chemical substance): 0.7 | The level of expressed mRNA in the presence of chemical substance/The level of expressed mRNA in the absence of chemical substance (yeast gene YEL039C, cells incubated two hours with the chemical substance): 0.6 | The level of expressed mRNA in the presence of chemical substance/The level of expressed mRNA in the absence of chemical substance (yeast gene YER178W): 1.6 | The level of expressed mRNA in the presence of chemical substance/The level of expressed mRNA in the absence of chemical substance (yeast gene YFL057C): 1.8 | The level of expressed mRNA in the presence of chemical substance/The level of expressed mRNA in the absence of chemical substance (yeast gene YFR053C): 2.1 | The level of expressed mRNA in the presence of chemical substance/The level of expressed mRNA in the absence of chemical substance (yeast gene YGL018C, cells incubated two hours with the chemical substance): 1.1 | The level of expressed mRNA in the presence of chemical substance/The level of expressed mRNA in the absence of chemical substance (yeast gene YGL062W): 1.3 | The level of expressed mRNA in the presence of chemical substance/The level of expressed mRNA in the absence of chemical substance (yeast gene YGL187C, cells incubated two hours with the chemical substance): 0.6 | The level of expressed mRNA in the presence of chemical substance/The level of expressed mRNA in the absence of chemical substance (yeast gene YGL191W, cells incubated two hours with the chemical substance): 1.0 | The level of expressed mRNA in the presence of chemical substance/The level of expressed mRNA in the absence of chemical substance (yeast gene YGL205W, cells incubated two hours with the chemical substance): 0.8 | The level of expressed mRNA in the presence of chemical substance/The level of expressed mRNA in the absence of chemical substance (yeast gene YGL256W, cells incubated two hours with the chemical substance): 0.5 | The level of expressed mRNA in the presence of chemical substance/The level of expressed mRNA in the absence of chemical substance (yeast gene YGR008C): 3.7 | The level of expressed mRNA in the presence of chemical substance/The level of expressed mRNA in the absence of chemical substance (yeast gene YGR043C): 6.5 | The level of expressed mRNA in the presence of chemical substance/The level of expressed mRNA in the absence of chemical substance (yeast gene YGR062C, cells incubated two hours with the chemical substance, 25° C., YPD medium): 1.3 | The level of expressed mRNA in the presence of chemical substance/The level of expressed mRNA in the absence of chemical substance (yeast gene YGR087C, cells incubated two hours with the chemical substance): 1.0 | The level of expressed mRNA in the presence of chemical substance/The level of expressed mRNA in the absence of chemical substance (yeast gene YGR174C, cells incubated two hours with the chemical substance): 1.0 | The level of expressed mRNA in the presence of chemical substance/The level of expressed mRNA in the absence of chemical substance (yeast gene YGR192C): 1.7 | The level of expressed mRNA in the presence of chemical substance/The level of expressed mRNA in the absence of chemical substance (yeast gene YGR244C): 3.9 | The level of expressed mRNA in the presence of chemical substance/The level of expressed mRNA in the absence of chemical substance (yeast gene YGR254W): 1.5 | The level of expressed mRNA in the presence of chemical substance/The level of expressed mRNA in the absence of chemical substance (yeast gene YHR179W): 1.9 | The level of expressed mRNA in the presence of chemical substance/The level of expressed mRNA in the absence of chemical substance (yeast gene YIL160C): 1.1 | The level of expressed mRNA in the presence of chemical substance/The level of expressed mRNA in the absence of chemical substance (yeast gene YIR031C, cells incubated two hours with the chemical substance): 1.4 | The level of expressed mRNA in the presence of chemical substance/The level of expressed mRNA in the absence of chemical substance (yeast gene YJL052W): 2.1 | The level of expressed mRNA in the presence of chemical substance/The level of expressed mRNA in the absence of chemical substance (yeast gene YJL121C, cells incubated two hours with the chemical substance): 0.7 | The level of expressed mRNA in the presence of chemical substance/The level of expressed mRNA in the absence of chemical substance (yeast gene YJL166W, cells incubated two hours with the chemical substance): 0.8 | The level of expressed mRNA in the presence of chemical substance/The level of expressed mRNA in the absence of chemical substance (yeast gene YJL216C, cells incubated two hours with the chemical substance): 1.5
